Tested on: T-47D
Experiment: Caspase cascade activation (caspase activity ratio and potency), fluorogenic N-(Ac-DEVD)-N'-ethoxycarbonyl-R110 substrate
Type: cell-based, Human
Procedure: Human breast cancer cell lines T-47D and DLD-1 were grown according to media component mixtures designated by American Type Culture Collection+10% FCS (Invitrogen Corporation), in a 5% CO2−95% humidity incubator at 37° C. T-47D and DLD-1 cells were maintained at a cell density between 50 and 80% confluency at a cell density of 0.1 to 0.6×10^6 cells/mL. Cells were harvested at 600×g and resuspended at 0.65×10^6 cells/mL into appropriate media+10% FCS. An aliquot of 22.5 μL of cells was added to a well of a 384-well microtiter plate containing 2.5 μL of a 10% DMSO in RPMI-1640 media solution containing 0.16 to 100 μM of (2-chloro-quinazolin-4-yl)-(4-methoxy-phenyl)-methyl-amine or other test compound (0.016 to 10 μM final). An aliquot of 22.5 μL of cells was added to a well of a 384-well microtiter plate containing 2.5 μL of a 10% DMSO in RPMI-1640 media solution without test compound as the control sample. […] […] The samples were mixed by agitation and incubated at room temperature. Using a fluorescent plate reader (Model SPECTRAfluor Plus, Tecan), an initial reading (T=0) was made approximately 1-2 min after addition of the substrate solution, employing excitation at 485 nm and emission at 530 nm, to determine the background fluorescence of the control sample. After the 3 h incubation, the samples were read for fluorescence as above (T=3 h).
The Relative Fluorescence Unit values (RFU) were used to calculate the sample readings as follows: RFU(T=3h)−Control RFU(T=0)=Net RFU(T=3h)
The activity of caspase cascade activation was determined by the ratio of the net RFU value for (2-chloro-quinazolin-4-yl)-(4-methoxy-phenyl)-methyl-amine or other test compounds to that of control samples. The EC50 (nM) was determined by a sigmoidal dose-response calculation (Prism 3.0, GraphPad Software Inc.).

SMILES | Caspase activity Ratio (net RFU of test compound to control) (T-47D (48 hr)) | Caspase activity Ratio (net RFU of test compound to control) (T-47D (24 hr)) | EC50 (Homo sapiens, T47D, T-47D (24 hr)) [nM]
COc1ccc(N(C)c2nc(Cl)nc3cc(Cl)ccc23)cc1 [Example 59, (2,7-Dichloro-quinazolin-4-yl)-(4-methoxy-phenyl)-methyl-amine] | 12.7 |  | 
Cc1nc(N(C)c2ccc(N(C)C)nc2)c2ccccc2n1 [Example 50, (2-Dimethylamino-pyridine-5-yl)-(2-methyl-quinazolin-4-yl)-methylamine] |  | 9.0 | 
CCOc1ccc(N(C)c2nc(C)nc3ccccc23)cc1 [Example 36, (4-Ethoxy-phenyl)-(2-methyl-quinazolin-4-yl)-methyl-amine] |  | 5.2 | 
COc1ccc(N(C)c2nc(NCc3ccccc3)nc3ccccc23)cc1 [Example 42, (2-Benzylamino-quinazolin-4-yl)-(4-methoxyphenyl)-methylamine] |  | 8.2 | 
COc1ccc(N(C)c2nc(Cl)nc3ccc(Cl)cc23)cc1 [Example 16, (2,6-Dichloro-quinazolin-4-yl)-(4-methoxy-phenyl)-methyl-amine] | 6.5 |  | 
COc1ccc(N(C)c2nc(C)nc3ccccc23)c(F)c1 [Example 34, (2-Fluoro-4-methoxy-phenyl)-(2-methyl-quinazolin-4-yl)-methyl-amine] |  | 6.9 | 
COc1ccc(N(C)c2nc(Cl)nc3ccccc23)cc1OC [Example 19, (2-Chloro-quinazolin-4-yl)-(3,4-dimethoxy-phenyl)-methyl-amine] | 13.1 |  | 
CCCOc1ccc(N(C)c2nc(Cl)nc3ccccc23)cc1 [Example 20, (2-Chloro-quinazolin-4-yl)-(4-propoxy-phenyl)-methyl-amine] | 11.3 |  | 
COc1ccc(N(C)c2nc(Cl)nc3ccc(C)cc23)cc1 [Example 13, (2-Chloro-6-methyl-quinazolin-4-yl)-(4-methoxy-phenyl)-methyl-amine] | 4.9 |  | 
CN(c1ccc(Cl)cc1)c1nc(Cl)nc2ccccc12 [Example 3, (2-Chloro-quinazolin-4-yl)-(4-chloro-phenyl)-methyl-amine] |  | 8.1 | 
CN(c1ccc([N+](=O)[O-])cc1)c1nc(Cl)nc2ccccc12 [Example 54, (2-Chloro-quinazolin-4-yl)-(4-nitro-phenyl)-methyl-amine] |  | 7.1 | 
Cc1ccc(N(C)c2nc(Cl)nc3ccccc23)cc1 [Example 2, (2-Chloro-quinazolin-4-yl)-(4-methyl-phenyl)-methyl-amine] |  | 6.7 | 
CCN(c1ccc(OC)cc1)c1nc(Cl)nc2ccccc12 [Example 8, (2-Chloro-quinazolin-4-yl)-ethyl-(4-methoxy-phenyl)-amine] | 6.1 |  | 
COc1cccc(N(C)c2nc(Cl)nc3ccccc23)c1 [Example 10, (2-Chloro-quinazolin-4-yl)-(3-methoxy-phenyl)-methyl-amine] | 14.7 |  | 
CN(c1ccc(OC(F)(F)F)cc1)c1nc(Cl)nc2ccccc12 [Example 4, (2-Chloro-quinazolin-4-yl)-(4-trifluoromethoxy-phenyl)-methyl-amine] |  | 10.3 | 
Cc1nc(N(C)c2ccc(N(C)C)cc2)c2cc([N+](=O)[O-])ccc2n1 [Example 44, (2-Methyl-6-nitroquinazolin-4-yl)-(4-dimethylaminophenyl)-methylamine] |  | 2.6 | 
CN(C)c1ccc(N(C)c2nc(Cl)nc3ccccc23)cc1 [Example 45, (2-Chloro-quinazolin-4-yl)-(4-dimethylaminophenyl)-methylamine] |  | 4.2 | 
COc1cccc(N(C)c2nc(Cl)nc3ccccc23)c1OC [Example 24, (2-Chloro-quinazolin-4-yl)-(2,3-dimethoxy-phenyl)-methyl-amine] |  | 4.5 | 
COc1ccc(N(C)c2nc(CCl)nc3ccccc23)cc1 [Example 22, (2-Chloromethyl-quinazolin-4-yl)-(4-methoxy-phenyl)-methyl-amine] | 5.7 | 6.2 | 

SMILES | Caspase activity Ratio (net RFU of test compound to control) (T-47D (48 hr)) | Caspase activity Ratio (net RFU of test compound to control) (T-47D (24 hr)) | EC50 (Homo sapiens, T47D, T-47D (24 hr)) [nM]
COc1ccc(N(C)c2nc(Cl)nc3cccc(C)c23)cc1 [Example 14, (2-Chloro-5-methyl-quinazolin-4-yl)-(4-methoxy-phenyl)-methyl-amine] | 10.8 |  | 
CN(c1ccc2c(c1)OCO2)c1nc(Cl)nc2ccccc12 [Example 18, (2-Chloro-quinazolin-4-yl)-(3,4-methylenedioxyphenyl)-methyl-amine] | 12.5 |  | 
COc1ccc(N(C)c2nc(CF)nc3ccccc23)cc1 [Example 12, (2-Fluoromethyl-quinazolin-4-yl)-(4-methoxy-phenyl)-methyl-amine] | 9.0 |  | 
COc1ccc(N(C)c2nc(C)nc3ccccc23)nc1 [Example 41, (5-Methoxy-pyridin-2-yl)-(2-methyl-quinazolin-4-yl)-methyl-amine] |  | 5.0 | 
CSc1ccc(N(C)c2nc(C)nc3ccccc23)cc1 [Example 49, (4-Methylthio-phenyl)-(2-methyl-quinazolin-4-yl)-methylamine] |  | 7.5 | 
COc1ccc(N(C)c2nc(Cl)nc3c(Cl)cccc23)cc1 [Example 29, (2,8-Dichloro-quinazolin-4-yl)-(4-methoxy-phenyl)-methyl-amine] | 7.8 |  | 
CNc1nc(N(C)c2ccc(N(C)C)cc2)c2ccccc2n1 [Example 47, (2-Methylamino-quinazolin-4-yl)-(4-dimethylaminophenyl)-methylamine] |  | 3.9 | 29
COc1ccc(N(C)c2nc(Cl)nc3ccccc23)cn1 [Example 7, (2-Chloro-quinazolin-4-yl)-(6-methoxy-pyridin-3-yl)-methyl-amine] |  | 6.7 | 
COc1ccc(N(C)c2nc(Cl)nc3cc(C)ccc23)cc1 [Example 60, (2-Chloro-7-methyl-quinazolin-4-yl)-(4-methoxy-phenyl)-methyl-amine] | 6.2 |  | 
COc1ccccc1N(C)c1nc(Cl)nc2ccccc12 [Example 57, (2-Chloro-quinazolin-4-yl)-(2-methoxy-phenyl)-methyl-amine] | 14.3 |  | 
Cc1nc(N(C)c2ccc(OC(C)C)cc2)c2ccccc2n1 [Example 27, (4-Isopropoxy-phenyl)-(2-methyl-quinazolin-4-yl)-methyl-amine] |  | 6.2 | 
COc1ccc(N(C)c2nc(C)nc3cccc(OC)c23)cc1 [Example 31, (5-Methoxy-2-methyl-quinazolin-4-yl)-(4-methoxy-phenyl)-methyl-amine] |  | 8.3 | 
CN(c1ccc(O)cc1)c1nc(Cl)nc2ccccc12 [Example 58, (2-Chloro-quinazolin-4-yl)-(4-hydroxyphenyl)-methylamine] | 12.5 |  | 
CCOc1ccc(N(C)c2nc(Cl)nc3ccccc23)cc1 [Example 32, (2-Chloro-quinazolin-4-yl)-(4-ethoxy-phenyl)-methylamine] | 9.0 |  | 
CCc1ccc(N(C)c2nc(C)nc3ccccc23)cc1 [Example 28, (4-Ethyl-phenyl)-(2-methyl-quinazolin-4-yl)-methyl-amine] |  | 6.3 | 
COc1ccc(N(C)c2nc(Cl)nc3c(C)cccc23)cc1 [Example 15, (2-Chloro-8-methyl-quinazolin-4-yl)-(4-methoxy-phenyl)-methyl-amine] | 7.1 |  | 
Cc1nc(N(C)c2ccc(OC(F)F)cc2)c2ccccc2n1 [Example 25, (4-Difluoromethoxy-phenyl)-(2-methyl-quinazolin-4-yl)-methyl-amine] |  | 6.7 | 
COc1ccc(N(C)c2nc(NO)nc3ccccc23)cc1 [Example 5, N^2-Hydroxyl-N^4-(4-methoxy-phenyl)-N^4-methyl-quinazoline-2,4-diamine] | 12.8 |  | 

Reference: patent US8258145B2, “Method of treating brain cancer” (Myrexis, Inc., priority 2005, dated 2012)
